Measurements taken from article PMC9889269, “Synthetic anaplerotic modules for the direct synthesis of complex molecules from CO2” (Nature Chemical Biology, 2022).

Biological target: T1, Aat (acetyl-CoA acetyltransferase) (Cupriavidus necator, UniProt P14611)
T1 construct: gene phaA; recombinant from E. coli BL21(DE3), Ni-NTA purified, desalted
T1 sequence (P14611 1-393): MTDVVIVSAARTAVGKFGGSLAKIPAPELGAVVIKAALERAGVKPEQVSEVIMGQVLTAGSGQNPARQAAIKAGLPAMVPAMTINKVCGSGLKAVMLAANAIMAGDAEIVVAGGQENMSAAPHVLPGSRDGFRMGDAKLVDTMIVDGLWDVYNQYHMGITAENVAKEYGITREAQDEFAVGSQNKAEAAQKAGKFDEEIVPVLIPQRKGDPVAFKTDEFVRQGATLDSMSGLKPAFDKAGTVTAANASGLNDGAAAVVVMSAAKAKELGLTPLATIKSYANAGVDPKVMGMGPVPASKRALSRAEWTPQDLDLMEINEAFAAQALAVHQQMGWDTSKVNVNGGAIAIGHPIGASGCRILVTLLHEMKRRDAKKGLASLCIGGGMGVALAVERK
Experiment: LC-MS of condensation products, with Aar and Bbd
Assay type: biochemical
Conditions: acetyl-CoA and propionyl-CoA together

| SMILES | LC-MS of condensation products, with Aar and Bbd | LC-MS of condensation products, with Aar and Bbd (condensed with acetyl-CoA, not with itself) |
| --- | --- | --- |
| CC(=O)SCCNC(=O)CCNC(=O)[C@H](O)C(C)(C)COP(=O)(O)OP(=O)(O)OC[C@H]1O[C@@H](n2cnc3c(N)ncnc32)[C@H](O)[C@@H]1OP(=O)(O)O [acetyl-CoA] | Promiscuity of Aat assayed with acetyl-CoA and propionyl-CoA |  |
| CCC(=O)SCCNC(=O)CCNC(=O)[C@H](O)C(C)(C)COP(=O)(O)OP(=O)(O)OC[C@H]1O[C@@H](n2cnc3c(N)ncnc32)[C@H](O)[C@@H]1OP(=O)(O)O [propionyl-CoA] |  | All products for acetyl- and propionyl-CoA combinations were detectable |
